# Assay results from patent publication US20250388597A1, “BIFUNCTIONAL PHOTOCROSSLINKING PROBES FOR COVALENT CAPTURE OF PROTEIN-NUCLEIC ACID COMPLEXES IN CELLS” (UNIVERSITY OF SOUTHERN CALIFORNIA, priority 2022, published 2025).
# Key:
# Nkx2.5/DNA complex = target: T1, Nkx2.5/DNA complex (Homo sapiens, UniProt P52952); experiment: BFPX crosslinking of Nkx2.5/DNA complexes, SDS PAGE; format: biochemical; settings: denaturing SDS PAGE; probes with UV
# T1 construct: human Nkx2.5 DBD (the homeodomain); made in house
# Procedure: FIG. 12H depicts BFPX crosslinking of Nkx2.5/DNA complexes. […] The various treatment combinations were list above the gel. The reactions were then analyzed by SDS PAGE under denaturing condition as described in FIG. 12D.
# FOXP3 in HEK293T cells = target: T2, FOXP3 in HEK293T cells (Homo sapiens, UniProt Q9BZS1); experiment: Capture of FLAG-tagged FOXP3 complexes in transfected HEK293T cells, whole cell lysate western blot; format: cell-based; settings: for crosslinked FOXP3 complexes in probe and UV treated cells: SPB-AAD 10 or 100 μM, SPB-PEG4-AAD 100 μM, UV 2-5 min, vs controls lanes 1-3
# T2 construct: AVI tag (N); TEV site (N); expressed in transfected cells; host or cells: HEK293T
# T2 sequence (Q9BZS1 1-431): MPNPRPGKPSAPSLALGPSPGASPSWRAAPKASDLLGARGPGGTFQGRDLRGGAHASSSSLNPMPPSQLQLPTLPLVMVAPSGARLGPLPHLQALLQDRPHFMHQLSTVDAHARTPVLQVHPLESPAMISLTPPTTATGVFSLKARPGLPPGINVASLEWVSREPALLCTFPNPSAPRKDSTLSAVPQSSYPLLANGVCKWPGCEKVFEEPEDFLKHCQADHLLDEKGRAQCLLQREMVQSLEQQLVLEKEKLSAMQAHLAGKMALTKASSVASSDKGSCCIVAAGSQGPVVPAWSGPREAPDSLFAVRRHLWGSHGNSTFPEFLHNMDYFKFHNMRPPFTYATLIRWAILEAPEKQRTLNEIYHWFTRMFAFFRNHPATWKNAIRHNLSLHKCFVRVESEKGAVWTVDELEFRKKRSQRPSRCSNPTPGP
# Procedure: FIG. 14C depicts 10 cm plate HEK293T cells (˜8.8 million) were transfected with 2 μg AVI-TEV-FLAG-FOXP3 for about 48 hr. The cells were harvested into 1.6 ml room temperature 1×DPBS buffer (with no calcium and magnesium). The cells were aliquoted into 300 μl per sample and each sample was added SPB-AAD 10 μM (A10) or 100 μM (A100) or SPB-PEG4-AAD 100 μM (p100). The samples were incubated at 37° C. for 30 min in dark with rotation. The samples were transferred to the middle wells of a 24-well plate (Corning #3527). With 300 μl, the liquid is about 1.5 mm high in a 24-well plate well. The samples on the 24-well plate were then UV illuminated (LED Chip: 21.4 mm×21.4 mm, 365-370 nm, 30 Watt, sample distance (the bottom of the well plate to the lamp plane) is 4 cm, exposure time 2-5 min at 4 degree C.). The BFPX-treated cells were recovered from the 24-well plate and washed using 1×DPBS, centrifuged at 500 g for 5 min to pellet the cells and remove the DPBS buffer. 0.5 million of the BFPX-treated cells was added 20 μl 1×RIPA buffer, shake on ice for 15 min to lyse the cells. The lysis mixture was then added 3 μl 10× MNase, 0.25 μl RnaseA, 12.5 Unit Mnase, and ddw to 30 μl, incubated at 37° C. for 15 min. The lysis mixture was then added 6 μl SDS loading dye (2% SDS), boil 10 min at 95° C. Run at 200V for 40 minutes on 4%-15% SDS-PAGE gel and analyzed by western blot (Transfer at 18V (30 mA) overnight, block in 2% BSA in PBS for 45 min, Primary antibody: 1:2000 anti-FLAG; room temperature, 2 hr; Secondary antibody: anti mouse light chain kappa 1: 100,000; Femto Signal ECL).
# Finally, we tested the capture of transcription factors bound to genomic DNA inside cells. HEK293T cells transfected with FLAG-tagged FOXP3 were treated with various combination of UV illumination and probe (SPB-AAD: A; and P: SPB-PEG4-AAD). The cells were lysed in 1×RIPA buffer followed by RNase and MNase treatment. The whole cell lysate were then added SDS loading dye, heated at 95 degree C. and run on a 4-15% SDS PAGE gel and analyzed by western blot using an anti-FLAG antibody.
# T1 sequence (P52952 138-197 limits assumed, one chain of several): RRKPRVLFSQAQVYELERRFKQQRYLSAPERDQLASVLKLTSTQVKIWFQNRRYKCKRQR
dependence of crosslinked FOXP3 complex formation on probe concentration (FOXP3 in HEK293T cells; 10 μM (lane 4) vs 100 μM (lane 6)),Structure (SMILES),crosslinking of the Nkx2.5/DNA complex (Nkx2.5/DNA complex),crosslinked FOXP3 complexes in probe and UV treated cells (FOXP3 in HEK293T cells)
–,"C#CCCC1(CCNC(=O)CCOCCOCCOCCOCCNC(=O)CCCOc2c3occc3cc3ccc(=O)oc23)N=N1 [SPB-PEG4-AAD, N-(2-(3-(but-3-yn-1-yl)-3H-diazirin-3-yl)ethyl)-1-(4-((7-oxo-7H-furo[3,2-g]chromen-9-yl)oxy)butanamido)-3,6,9,12-tetraoxapentadecan-15-amide]",significant crosslinking of the Nkx2.5/DNA complex,higher molecular weight species containing FOXP3 were observed
dosage dependent on probe concentration,"C#CCCC1(CCNC(=O)CCCOc2c3occc3cc3ccc(=O)oc23)N=N1 [SPB-AAD, N-(2-(3-(but-3-yn-1-yl)-3H-diazirin-3-yl)ethyl)-4-((7-oxo-7H-furo[3,2-g]chromen-9-yl)oxy)butanamide]",significant crosslinking of the Nkx2.5/DNA complex,higher molecular weight species containing FOXP3 were observed
